Experiments:
[1] = system: Microbotryum violaceum; experiment: Antimicrobial activity against Microbotryum violaceum at 20 ug; format: functional; conditions: read-out: IZ
[2] = system: Aspergillus pseudoglaucus; experiment: Antimicrobial activity against Eurotium repens at 20 ug; format: functional; conditions: read-out: IZ
[3] = system: Microbotryum violaceum; experiment: Antimicrobial activity against Microbotryum violaceum at 25 ug; format: functional; conditions: read-out: IZ
[4] = system: Microbotryum violaceum; experiment: Antimicrobial activity against Microbotryum violaceum at 10 ug; format: functional; conditions: read-out: IZ
[5] = system: Aspergillus pseudoglaucus; experiment: Antimicrobial activity against Eurotium repens at 10 ug; format: functional; conditions: read-out: IZ
[6] = molecular target: Tyrosine-protein kinase Lck (Homo sapiens) (UniProt P06239); experiment: Inhibition of p56 LCK at 200 ug/ml; set-up: scale not given: the % may be the effect or the level left
Sequence of Tyrosine-protein kinase Lck (Homo sapiens) (P06239 2-509 limits assumed): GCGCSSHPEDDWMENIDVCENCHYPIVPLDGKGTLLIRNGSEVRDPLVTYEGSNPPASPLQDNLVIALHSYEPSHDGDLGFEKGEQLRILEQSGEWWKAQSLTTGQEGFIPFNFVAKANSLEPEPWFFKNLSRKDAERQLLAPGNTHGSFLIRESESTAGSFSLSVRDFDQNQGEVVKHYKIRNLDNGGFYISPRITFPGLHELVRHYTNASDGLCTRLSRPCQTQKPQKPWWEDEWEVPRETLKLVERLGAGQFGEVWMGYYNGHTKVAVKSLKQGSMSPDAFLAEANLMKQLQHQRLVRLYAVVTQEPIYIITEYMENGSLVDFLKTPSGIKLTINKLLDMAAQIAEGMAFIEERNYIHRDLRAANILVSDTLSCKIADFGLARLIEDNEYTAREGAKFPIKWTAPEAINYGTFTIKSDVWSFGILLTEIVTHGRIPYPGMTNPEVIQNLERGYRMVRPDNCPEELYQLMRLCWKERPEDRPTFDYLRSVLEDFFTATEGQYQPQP

SMILES | zone of inhibition at 10 µg/disc [4] | Activity [6] | further results
CC(=O)O[C@@H]1C[C@H]2[C@@H]([C@H](O)C=C3C[C@@H](O)CC[C@@]32C)[C@@H]2CC[C@H]([C@H](C)[C@H]3C[C@]3(C)[C@H](C)C(C)C)[C@@]12C | – | – | zone of inhibition at 20 µg/disc [1]: 1 mm; zone of inhibition at 20 µg/disc [2]: 2 mm
CC(=O)O[C@@H]1[C@H](O)[C@H]2[C@@H](CC=C3C[C@@H](O)CC[C@@]32C)[C@@H]2CC(O)[C@H]([C@H](C)CC[C@H](C)C(C)C)[C@@]12C (some centres undefined) | – | – | zone of inhibition at 25 µg/disc [3]: 1 mm
CC(=O)O[C@@H]1C[C@H]2[C@@H]([C@H](O)C=C3C[C@@H](O)CC[C@@]32CO)[C@@H]2CC[C@H]([C@H](C)[C@H]3C[C@]3(C)[C@H](C)C(C)C)[C@@]12C | 2 mm | – | –
CC(=O)O[C@@H]1[C@H]2[C@@H](CC=C3C[C@@H](O)CC[C@@]32C)[C@@H]2CC(O)[C@H]([C@H](C)CC[C@H](C)C(C)C)[C@@]2(C)[C@@H]1O (some centres undefined) | 3 mm | 47% | zone of inhibition at 10 µg/disc [5]: 2 mm
CC(=O)O[C@@H]1C[C@H]2[C@@H](CC=C3C[C@@H](O)CC[C@@]32C)[C@@H]2CC[C@H]([C@H](C)CC(O)[C@H](C)C(C)C)[C@@]12C (some centres undefined) | 3 mm | 42% | –

Reference: ChEMBL document CHEMBL1159339, “Oxygenated analogues of gorgosterol and ergosterol from the soft coral Capnella lacertiliensis” (2003)
